According to US5891924A, “Curcumin (diferuloylmethane) inhibition of NFκB activation” (Research Development Foundation, priority 1996, dated 1999):

Tests used:
[1] = test system: NF-κB; test: TNF-dependent NF-κB activation by electrophoretic mobility shift assay in ML-1a cells; format: cell-based, human
[2] = test system: NF-κB; test: Binding of NF-κB to DNA, nuclear extracts from TNF-pre-activated cells incubated with curcumin, EMSA; set-up: species or system human; details: nuclear extracts from TNF-pre-activated cells incubated with curcumin 15 minutes, FIG. 2b
[3] = test system: NF-κB; test: PMA- and H2O2-mediated activation of NF-κB in ML-1a cells, EMSA; format: cell-based, human; details: curcumin 50 μM 60 minutes preincubation, FIG. 3
[4] = test system: AP-1; test: EMSA of AP-1 transcription factor in curcumin-treated cells; format: cell-based, human; details: cells treated with different concentrations of curcumin 60 minutes at 37° C., FIG. 4
[5] = test system: Sp1; test: EMSA of Sp1 transcription factor in curcumin-treated cells; format: cell-based, human; details: cells treated with different concentrations of curcumin 60 minutes at 37° C., FIG. 4
[6] = test system: NF-κB; test: Effect of reducing agents DTT and DMP on inhibition of TNF-induced NF-κB activation, EMSA; format: cell-based, human; details: DTT 100 μM or DMP 100 μM, curcumin 50 μM or PAO 2.4 μM, 60 minutes, then 0.1 nM TNF 30 minutes, FIG. 5
[7] = test system: IκBα; test: Western blot for TNF-induced phosphorylation and degradation of IκBα in ML-1a cells; format: cell-based, human; details: curcumin 50 μM 60 minutes pretreatment, TNF 0.1 nM different times, cytosolic fraction, FIG. 6A
Experimental: ML-1a (2×10^6 /ml) pretreated (for 60 minutes at 37° C.) with or without curcumin (50 μM) were incubated for different times with TNF (0.1 nM), and then assayed for IκBα (FIG. 6A) and for p65 (FIG. 6B) in cytosolic fractions by western blot analysis as described below. ML-1a (2×10^6 /ml) pretreated (for 60 minutes at 37° C.) with curcumin were incubated with TNF (0.1 nM) for 30 minutes. Nuclear and cytoplasmic extracts were assayed by western blot analysis for p65. The arbitrary units represent the relative amounts of the respective proteins as described below.
After the NF-κB activation reaction described above, postnuclear extracts were resolved on 10% SDS-polyacrylamide gels for IκBα. To determine p65 levels, nuclear and post nuclear (cytoplasmic) extracts were resolved on 8% SDS-polyacrylamide gels. After the gels, the proteins were electrotransferred to nitrocellulose filters, probed with a rabbit polyclonal antibody against IκBa or against p65, and detected by chemiluminescence (ECL-Amersham) (22). The bands obtained were quantitated using Personal Densitometer Scan v1.30 using Image Quanta software version 3.3 (Molecular Dynamics, Sunnyvale, Calif.).
The translocation of NF-κB to the nucleus is preceded by the phosphorylation and proteolytic degradation of IκBα (26). […]

[8] = test system: p65 subunit of NF-κB; test: Western blot for p65 level in cytoplasm and nucleus of TNF-treated ML-1a cells; format: cell-based, human

In the case of `COc1cc(/C=C/C(=O)CC(=O)/C=C/c2ccc(O)c(OC)c2)ccc1O` [curcumin, diferuloylmethane], the “inhibition of TNF response, pretreatment with curcumin” value ([1]; 20 μM curcumin 60, 30 and 10 minutes prior to TNF 0.1 nM, TNF 30 minutes, FIG. 1b) is reported as “inhibited only when cells were pretreated”, the “inhibition of TNF response, cotreatment of cells with TNF and curcumin” value ([1]; 20 μM curcumin added at the same time as TNF 0.1 nM, TNF 30 minutes, FIG. 1b) is reported as “not effective” and the “inhibition of NF-κB activation induced by 10 nM TNF” value ([1]; 50 μM curcumin 60 minutes pretreatment, 10 nM TNF for different times, FIG. 1c) is reported as “completely inhibit”. The “activation of NF-κB by the compound by itself” value ([1]; ML-1a cells, without TNF, EMSA) was “did not activate”, the “effect on the ability of NF-κB to bind to the DNA” value [2] was “did not modify” and the “inhibition of hydrogen peroxide-induced activation of NF-κB” value ([3]; H2O2 0.5 mM 30 minutes) was “completely blocked”. For the same compound, the “inhibition of PMA-induced activation of NF-κB” value ([3]; PMA 25 ng/ml 30 minutes) was “completely blocked”, the “effect on DNA binding of AP-1 transcription factors” value [4] was “down-modulated” and the “effect on the Sp1 transcription factor” value [5] was “no effect”. The “reversal by DTT and DMP of the inhibition of TNF-induced NF-κB activation” value [6] was “did not reverse”, the “effect on TNF-induced phosphorylation and degradation of IκBα” value [7] was “abolished” and the “effect on TNF-dependent change in nuclear and cytoplasmic p65 levels (translocation of p65 to the nucleus)” value ([8]; curcumin 50 μM 60 minutes pretreatment, TNF 0.1 nM, FIGS. 6B and 6C) was “abolished”. For the same compound, the “down-modulation of the cytoplasmic pool of p65 subunit of NF-κB” value ([8]; curcumin-treated ML-1a cells, western blot) was “not down-modulated”.
